Literature values in patent US20050147620A1, “Cinnamon formulation for reducing cholesterol and/or glucose levels” (priority 2004, published 2005).

What was measured:
[1] = ingestion of 20 to 30 g per day for several days

| pKa | Structure (SMILES) | increase in human skeletal muscle total creatine content [1] |
| --- | --- | --- |
| – | CN(CC(=O)O)C(=N)N.O [creatine monohydrate] | greater than 20% |
| 4.7 | O=C(O)CCCCC1CCSS1 (stereo not drawn) [lipoic acid, α-lipoic acid] | – |
